Measured values published in the supplement of paper PMC10307832.

Assays:
Assay in all cases: relative viability (nuclei count vs DMSO), 5 days (fraction); higher = more cells survive
Selisistat + Alpelisib = compound: C1CC(C2=C(C1)C3=C(N2)C=CC(=C3)Cl)C(=O)N [Selisistat] + Cc1nc(NC(=O)N2CCC[C@H]2C(N)=O)sc1-c1ccnc(C(C)(C)C(F)(F)F)c1 [Alpelisib] (partner 2 µM)
Method in brief: (§1)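 Lung cancer cell lines were pin-tool dosed in 1536-well plates on the day after seeding, with either a lone drug or a fixed anchor-drug dose plus five library-drug doses (not always all listed) in √10 steps. Nuclei were counted on 4× images after 5 days. Relative viability is the ratio of treated-well to vehicle-well nuclei counts, with each value a median of duplicate plates.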

Selisistat + Dasatinib = compound: C1CC(C2=C(C1)C3=C(N2)C=CC(=C3)Cl)C(=O)N [Selisistat] + Cc1nc(Nc2ncc(C(=O)Nc3c(C)cccc3Cl)s2)cc(N2CCN(CCO)CC2)n1 [Dasatinib] (partner 0.075 µM)
Method in brief: as §1

Serdemetan + Foretinib = compound: c1ccc2c(CCNc3ccc(Nc4ccncc4)cc3)c[nH]c2c1 [Serdemetan] + COc1cc2c(Oc3ccc(NC(=O)C4(C(=O)Nc5ccc(F)cc5)CC4)cc3F)ccnc2cc1OCCCN1CCOCC1 [Foretinib] (partner 0.25 µM)
Method in brief: as §1

Serdemetan + Crizotinib = compound: c1ccc2c(CCNc3ccc(Nc4ccncc4)cc3)c[nH]c2c1 [Serdemetan] + C[C@@H](Oc1cc(-c2cnn(C3CCNCC3)c2)cnc1N)c1c(Cl)ccc(F)c1Cl [Crizotinib] (partner 1 µM)
Method in brief: as §1

NCI-H1915 was tested, and the relative viability (Selisistat + Alpelisib; first compound 0.4 µM) was 1.08, the relative viability (Selisistat + Alpelisib; first compound 1.265 µM) was 1.03 and the relative viability (Selisistat + Alpelisib; first compound 4 µM) was 1.09. The relative viability (Selisistat + Alpelisib; first compound 12.65 µM) was 1.05, the relative viability (Selisistat + Alpelisib; first compound 40 µM) was 1.04 and the relative viability (Selisistat + Dasatinib; first compound 0.4 µM) was 0.322. The relative viability (Selisistat + Dasatinib; first compound 1.265 µM) was 0.312, the relative viability (Selisistat + Dasatinib; first compound 4 µM) was 0.261 and the relative viability (Selisistat + Dasatinib; first compound 12.65 µM) was 0.319. The relative viability (Selisistat + Dasatinib; first compound 40 µM) was 0.313, the relative viability (Serdemetan + Foretinib; first compound 0.04 µM) was 1.14 and the relative viability (Serdemetan + Foretinib; first compound 0.1265 µM) was 1.09. The relative viability (Serdemetan + Foretinib; first compound 0.4 µM) was 1.07, the relative viability (Serdemetan + Foretinib; first compound 1.265 µM) was 1.03 and the relative viability (Serdemetan + Foretinib; first compound 4 µM) was 0.837. It also gave a relative viability (Serdemetan + Crizotinib; first compound 0.04 µM) of 0.86, a relative viability (Serdemetan + Crizotinib; first compound 0.1265 µM) of 0.887 and a relative viability (Serdemetan + Crizotinib; first compound 0.4 µM) of 0.833. It also gave a relative viability (Serdemetan + Crizotinib; first compound 1.265 µM) of 0.709 and a relative viability (Serdemetan + Crizotinib; first compound 4 µM) of 0.59.
NCI-H1944 was tested, and the relative viability (Selisistat + Alpelisib; first compound 0.4 µM) was 0.92, the relative viability (Selisistat + Alpelisib; first compound 1.265 µM) was 0.779 and the relative viability (Selisistat + Alpelisib; first compound 12.65 µM) was 0.729. The relative viability (Selisistat + Alpelisib; first compound 40 µM) was 0.823, the relative viability (Selisistat + Dasatinib; first compound 0.4 µM) was 0.24 and the relative viability (Selisistat + Dasatinib; first compound 1.265 µM) was 0.205. It also gave a relative viability (Selisistat + Dasatinib; first compound 12.65 µM) of 0.22, a relative viability (Selisistat + Dasatinib; first compound 40 µM) of 0.2 and a relative viability (Serdemetan + Foretinib; first compound 0.04 µM) of 0.832. It also gave a relative viability (Serdemetan + Foretinib; first compound 0.1265 µM) of 0.836, a relative viability (Serdemetan + Foretinib; first compound 0.4 µM) of 0.828 and a relative viability (Serdemetan + Foretinib; first compound 1.265 µM) of 0.406. For the same cell line, the relative viability (Serdemetan + Foretinib; first compound 4 µM) was 0.392, the relative viability (Serdemetan + Crizotinib; first compound 0.04 µM) was 0.973 and the relative viability (Serdemetan + Crizotinib; first compound 0.1265 µM) was 1.02. For the same cell line, the relative viability (Serdemetan + Crizotinib; first compound 0.4 µM) was 0.904 and the relative viability (Serdemetan + Crizotinib; first compound 4 µM) was 0.419.
NCI-H1975 showed a relative viability (Selisistat + Alpelisib; first compound 0.4 µM) of 0.656, a relative viability (Selisistat + Alpelisib; first compound 1.265 µM) of 0.553 and a relative viability (Selisistat + Alpelisib; first compound 4 µM) of 0.588. It also gave a relative viability (Selisistat + Alpelisib; first compound 12.65 µM) of 0.604, a relative viability (Selisistat + Alpelisib; first compound 40 µM) of 0.579 and a relative viability (Selisistat + Dasatinib; first compound 0.4 µM) of 0.346. For the same cell line, the relative viability (Selisistat + Dasatinib; first compound 1.265 µM) was 0.383, the relative viability (Selisistat + Dasatinib; first compound 4 µM) was 0.195 and the relative viability (Selisistat + Dasatinib; first compound 12.65 µM) was 0.314. For the same cell line, the relative viability (Selisistat + Dasatinib; first compound 40 µM) was 0.345, the relative viability (Serdemetan + Foretinib; first compound 0.04 µM) was 0.866 and the relative viability (Serdemetan + Foretinib; first compound 0.1265 µM) was 0.849. The relative viability (Serdemetan + Foretinib; first compound 0.4 µM) was 0.982, the relative viability (Serdemetan + Foretinib; first compound 4 µM) was 0.987 and the relative viability (Serdemetan + Crizotinib; first compound 0.04 µM) was 0.91. For the same cell line, the relative viability (Serdemetan + Crizotinib; first compound 0.1265 µM) was 0.934, the relative viability (Serdemetan + Crizotinib; first compound 0.4 µM) was 0.937 and the relative viability (Serdemetan + Crizotinib; first compound 1.265 µM) was 0.804. It also gave a relative viability (Serdemetan + Crizotinib; first compound 4 µM) of 0.99.
NCI-H1993 gave a relative viability (Selisistat + Alpelisib; first compound 0.4 µM) of 0.575, a relative viability (Selisistat + Alpelisib; first compound 1.265 µM) of 0.67 and a relative viability (Selisistat + Alpelisib; first compound 12.65 µM) of 0.775. For the same cell line, the relative viability (Selisistat + Alpelisib; first compound 40 µM) was 0.721, the relative viability (Selisistat + Dasatinib; first compound 0.4 µM) was 0.629 and the relative viability (Selisistat + Dasatinib; first compound 1.265 µM) was 0.655. The relative viability (Selisistat + Dasatinib; first compound 4 µM) was 0.501, the relative viability (Selisistat + Dasatinib; first compound 12.65 µM) was 0.672 and the relative viability (Selisistat + Dasatinib; first compound 40 µM) was 0.589. It also gave a relative viability (Serdemetan + Foretinib; first compound 0.04 µM) of 0.888, a relative viability (Serdemetan + Foretinib; first compound 0.1265 µM) of 0.813 and a relative viability (Serdemetan + Foretinib; first compound 0.4 µM) of 0.692. For the same cell line, the relative viability (Serdemetan + Foretinib; first compound 1.265 µM) was 0.76, the relative viability (Serdemetan + Foretinib; first compound 4 µM) was 0.672 and the relative viability (Serdemetan + Crizotinib; first compound 0.04 µM) was 0.951. The relative viability (Serdemetan + Crizotinib; first compound 0.1265 µM) was 0.944, the relative viability (Serdemetan + Crizotinib; first compound 0.4 µM) was 0.86 and the relative viability (Serdemetan + Crizotinib; first compound 4 µM) was 0.734.
